The values below come from patent US6943183B2 (Pfizer Inc, priority 2000, dated 2005).

pIC50: −log10 of the molar value.

In this test the target is T1, SF9 affinity purified rat FPT (Rattus norvegicus, UniProt Q02293+Q04631).
T1 construct: made in house; host or cells: Sf9 insect cells
The test can be described thus: PFT (FPT) inhibitory activity assay, radiolabeled farnesyl pyrophosphate and biotinyl peptide, streptavidin beads. The format is biochemical. To be noted: HEPES buffer pH 7.4, 30° C., 30 minutes; read-out: FTase IC50. The method, boiled down: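 Rat FPT expressed in SF9 cells was incubated 30 minutes at 30° C. with compound (in 10% DMSO), radiolabeled farnesyl pyrophosphate and biotinylated peptide. Buffer: HEPES pH 7.4, ZnCl2 20 μM, MgCl2 and DTT 5 mM each, 0.1% PEG 8000, 5 mM potassium phosphate (also run without phosphate). Product captured on streptavidin beads in magnesium acetate/H3PO4 stop buffer.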
Turning to `O=C(NC1CCCC1)c1cccc(SCc2c(O[C@H](Cn3ccnc3)c3ccccc3)ccc3c2CCCC3=O)c1` [Compound 221, N-Cyclopentyl-3-{[(2-{[(1S)-2-(1H-imidazol-1-yl)-1-phenylethyl]oxy}-5-oxo-5,6,7,8-tetrahydro-1-naphthalenyl)methyl]sulfanyl}benzamide], the pIC50 (commonly −log10 of the IC50, conventionally taken in molar units) was 9.70. For the molecule `O=C(NC1CCCC1)c1ccccc1SCc1c(O[C@H](Cn2ccnc2)c2ccccc2)ccc2c1CCCC2=O` [Compound 222, N-Cyclopentyl-2-{[(2-{[(1S)-2-(1H-imidazol-1-yl)-1-phenylethyl]oxy}-5-oxo-5,6,7,8-tetrahydro-1-naphthalenyl)methyl]sulfanyl}benzamide], the pIC50 is 9.70. Regarding `O=C(NC1CC1)c1ccc(S(=O)(=O)Cc2c(O[C@H](Cn3ccnc3)c3ccccc3)ccc3c2CCCC3=O)cc1` [Compound 223, N-Cyclopropyl-4-{[(2-{[(1S)-2-(1H-imidazol-1-yl)-1-phenylethyl]oxy}-5-oxo-5,6,7,8-tetrahydro-1-naphthalenyl)methyl]sulfonyl}benzamide], the negative logarithm of the IC50 (pIC50) was 9.62.

As for `O=C(NC1CC1)c1cccc(S(=O)(=O)Cc2c(O[C@H](Cn3ccnc3)c3ccccc3)ccc3c2CCCC3=O)c1` [Compound 224, N-Cyclopropyl-3-{[(2-{[(1S)-2-(1H-imidazol-1-yl)-1-phenylethyl]oxy}-5-oxo-5,6,7,8-tetrahydro-1-naphthalenyl)methyl]sulfonyl}benzamide], the pIC50 was 9.70. Next, `O=C(NC1CC1)c1ccccc1S(=O)(=O)Cc1c(O[C@H](Cn2ccnc2)c2ccccc2)ccc2c1CCCC2=O` [Compound 225, N-Cyclopropyl-2-{[(2-{[(1S)-2-(1H-imidazol-1-yl)-1-phenylethyl]oxy}-5-oxo-5,6,7,8-tetrahydro-1-naphthalenyl)methyl]sulfonyl}benzamide]: 9.70; `O=C(NC1CC1)c1ccc(SCc2c(O[C@H](Cn3ccnc3)c3ccccc3)ccc3c2CCCC3=O)cc1` [Compound 226, N-Cyclopropyl-4-{[(2-{[(1S)-2-(1H-imidazol-1-yl)-1-phenylethyl]oxy}-5-oxo-5,6,7,8-tetrahydro-1-naphthalenyl)methyl]sulfanyl}benzamide]: 9.70. As to `O=C(NC1CC1)c1cccc(SCc2c(O[C@H](Cn3ccnc3)c3ccccc3)ccc3c2CCCC3=O)c1` [Compound 227, N-Cyclopropyl-3-{[(2-{[(1S)-2-(1H-imidazol-1-yl)-1-phenylethyl]oxy}-5-oxo-5,6,7,8-tetrahydro-1-naphthalenyl)methyl]sulfanyl}benzamide], the pIC50 is 9.70.

For `O=C(NC1CC1)c1ccccc1SCc1c(O[C@H](Cn2ccnc2)c2ccccc2)ccc2c1CCCC2=O` [Compound 228, N-Cyclopropyl-2-{[(2-{[(1S)-2-(1H-imidazol-1-yl)-1-phenylethyl]oxy}-5-oxo-5,6,7,8-tetrahydro-1-naphthalenyl)methyl]sulfanyl}benzamide], the pIC50 is 9.70.

Turning to `O=C(NCc1ccco1)c1ccc(S(=O)(=O)Cc2c(O[C@H](Cn3ccnc3)c3ccccc3)ccc3c2CCCC3=O)cc1` [Compound 229, N-(2-Furylmethyl)-4-{[(2-{[(1S)-2-(1H-imidazol-1-yl)-1-phenylethyl]oxy}-5-oxo-5,6,7,8-tetrahydro-1-naphthalenyl)methyl]sulfonyl}benzamide], the pIC50 was 9.26. With `O=C(NCc1ccco1)c1cccc(S(=O)(=O)Cc2c(O[C@H](Cn3ccnc3)c3ccccc3)ccc3c2CCCC3=O)c1` [Compound 230, N-(2-Furylmethyl)-3-{[(2-{[(1S)-2-(1H-imidazol-1-yl)-1-phenylethyl]oxy}-5-oxo-5,6,7,8-tetrahydro-1-naphthalenyl)methyl]sulfonyl}benzamide], the pIC50 is 9.70. On to `O=C(NCc1ccco1)c1ccccc1S(=O)(=O)Cc1c(O[C@H](Cn2ccnc2)c2ccccc2)ccc2c1CCCC2=O` [Compound 231, N-(2-Furylmethyl)-2-{[(2-{[(1S)-2-(1H-imidazol-1-yl)-1-phenylethyl]oxy}-5-oxo-5,6,7,8-tetrahydro-1-naphthalenyl)methyl]sulfonyl}benzamide], for which the negative logarithm of the IC50 (pIC50) was 9.70. As for `O=C(NC(CO)CO)c1ccccc1SCc1c(O[C@H](Cn2ccnc2)c2ccccc2)ccc2c1CCCC2=O` [Compound 232, N-[2-Hydroxy-1-(hydroxymethyl)ethyl]-2-{[(2-{[(1S)-2-(1H-imidazol-1-yl)-1-phenylethyl]oxy}-5-oxo-5,6,7,8-tetrahydro-1-naphthalenyl)methyl]sulfanyl}benzamide], the pIC50 is 9.70. For the molecule `O=C(NC(CO)CO)c1ccc(SCc2c(O[C@H](Cn3ccnc3)c3ccccc3)ccc3c2CCCC3=O)cc1` [Compound 233, N-[2-Hydroxy-1-(hydroxymethyl)ethyl]-4-{[(2-{[(1S)-2-(1H-imidazol-1-yl)-1-phenylethyl]oxy}-5-oxo-5,6,7,8-tetrahydro-1-naphthalenyl)methyl]sulfanyl}benzamide], the pIC50 is 9.35. Turning to `O=C(NC(CO)CO)c1cccc(SCc2c(O[C@H](Cn3ccnc3)c3ccccc3)ccc3c2CCCC3=O)c1` [Compound 234, N-[2-Hydroxy-1-(hydroxymethyl)ethyl]-3-{[(2-{[(1S)-2-(1H-imidazol-1-yl)-1-phenylethyl]oxy}-5-oxo-5,6,7,8-tetrahydro-1-naphthalenyl)methyl]sulfanyl}benzamide], the pIC50 is 9.60. In the case of `O=C(NC(CO)CO)c1ccc(S(=O)(=O)Cc2c(O[C@H](Cn3ccnc3)c3ccccc3)ccc3c2CCCC3=O)cc1` [Compound 235, N-[2-Hydroxy-1-(hydroxymethyl)ethyl]-4-{[(2-{[(1S)-2-(1H-imidazol-1-yl)-1-phenylethyl]oxy}-5-oxo-5,6,7,8-tetrahydro-1-naphthalenyl)methyl]sulfonyl}benzamide], the negative-log IC50 (pIC50) is 7.82.

Turning to `O=C(NC(CO)CO)c1cccc(S(=O)(=O)Cc2c(O[C@H](Cn3ccnc3)c3ccccc3)ccc3c2CCCC3=O)c1` [Compound 236, N-[2-Hydroxy-1-(hydroxymethyl)ethyl]-3-{[(2-{[(1S)-2-(1H-imidazol-1-yl)-1-phenylethyl]oxy}-5-oxo-5,6,7,8-tetrahydro-1-naphthalenyl)methyl]sulfonyl}benzamide], the negative logarithm of the IC50 (pIC50) was 9.70. The figure for `O=C(NC(CO)CO)c1ccccc1S(=O)(=O)Cc1c(O[C@H](Cn2ccnc2)c2ccccc2)ccc2c1CCCC2=O` [Compound 237, N-[2-Hydroxy-1-(hydroxymethyl)ethyl]-2-{[(2-{[(1S)-2-(1H-imidazol-1-yl)-1-phenylethyl]oxy}-5-oxo-5,6,7,8-tetrahydro-1-naphthalenyl)methyl]sulfonyl}benzamide] is 9.55. For `O=C(NCc1ccco1)c1ccc(SCc2c(O[C@H](Cn3ccnc3)c3ccccc3)ccc3c2CCCC3=O)cc1` [Compound 238, N-(2-Furylmethyl)-4-{[(2-{[(1S)-2-(1H-imidazol-1-yl)-1-phenylethyl]oxy}-5-oxo-5,6,7,8-tetrahydro-1-naphthalenyl)methyl]sulfanyl}benzamide], the pIC50 was 9.70. The figure for `O=C(NCc1ccco1)c1cccc(SCc2c(O[C@H](Cn3ccnc3)c3ccccc3)ccc3c2CCCC3=O)c1` [Compound 239, N-(2-Furylmethyl)-3-{[(2-{[(1S)-2-(1H-imidazol-1-yl)-1-phenylethyl]oxy}-5-oxo-5,6,7,8-tetrahydro-1-naphthalenyl)methyl]sulfanyl}benzamide] is 9.52. In the case of `O=C(NCc1ccco1)c1ccccc1SCc1c(O[C@H](Cn2ccnc2)c2ccccc2)ccc2c1CCCC2=O` [Compound 240, N-(2-Furylmethyl)-2-{[(2-{[(1S)-2-(1H-imidazol-1-yl)-1-phenylethyl]oxy}-5-oxo-5,6,7,8-tetrahydro-1-naphthalenyl)methyl]sulfanyl}benzamide], the pIC50 was 9.70. Consider `CC[C@H](CO)NC(=O)c1ccc(S(=O)(=O)Cc2c(O[C@H](Cn3ccnc3)c3ccccc3)ccc3c2CCCC3=O)cc1` [Compound 241, N-[(1R)-1-(Hydroxymethyl)propyl]-4-{[(2-{[(1S)-2-(1H-imidazol-1-yl)-1-phenylethyl]oxy}-5-oxo-5,6,7,8-tetrahydro-1-naphthalenyl)methyl]sulfonyl}benzamide], for which the pIC50 is 9.59. Next, `CC[C@H](CO)NC(=O)c1cccc(S(=O)(=O)Cc2c(O[C@H](Cn3ccnc3)c3ccccc3)ccc3c2CCCC3=O)c1` [Compound 242, N-[(1R)-1-(Hydroxymethyl)propyl]-3-{[(2-{[(1S)-2-(1H-imidazol-1-yl)-1-phenylethyl]oxy}-5-oxo-5,6,7,8-tetrahydro-1-naphthalenyl)methyl]sulfonyl}benzamide]: 9.70; `CC[C@H](CO)NC(=O)c1ccccc1S(=O)(=O)Cc1c(O[C@H](Cn2ccnc2)c2ccccc2)ccc2c1CCCC2=O` [Compound 243, N-[(1R)-1-(Hydroxymethyl)propyl]-2-{[(2-{[(1S)-2-(1H-imidazol-1-yl)-1-phenylethyl]oxy}-5-oxo-5,6,7,8-tetrahydro-1-naphthalenyl)methyl]sulfonyl}benzamide]: 9.70. `CC[C@H](CO)NC(=O)c1ccccc1SCc1c(O[C@H](Cn2ccnc2)c2ccccc2)ccc2c1CCCC2=O` [Compound 244, N-[(1R)-1-(Hydroxymethyl)propyl]-2-{[(2-{[(1S)-2-(1H-imidazol-1-yl)-1-phenylethyl]oxy}-5-oxo-5,6,7,8-tetrahydro-1-naphthalenyl)methyl]sulfanyl}benzamide]: the negative-log IC50 (pIC50) was 9.70. On to `CC[C@H](CO)NC(=O)c1ccc(SCc2c(O[C@H](Cn3ccnc3)c3ccccc3)ccc3c2CCCC3=O)cc1` [Compound 245, N-[(1R)-1-(Hydroxymethyl)propyl]-4-{[(2-{[(1S)-2-(1H-imidazol-1-yl)-1-phenylethyl]oxy}-5-oxo-5,6,7,8-tetrahydro-1-naphthalenyl)methyl]sulfanyl}benzamide], for which the negative-log IC50 (pIC50) was 9.70.
